Data on three compounds can be found in patent US20040054292A1, “Non-invasive apparatus system for monitoring autonomic nervous system and uses thereof” (INDUSTRIAL TECHNOLOGY RESEARCH INSTITUTE, priority 2002, published 2004).

In experiment [1] the test system is autonomic nervous system. Nature of the experiment: Heart rate variability spectral analysis in anesthetized rats after intravenous drug. The class given is in vivo, Sprague-Dawley rats. Conditions: for high frequency (index of parasympathetic nervous activity): 0.5 to 2.4 Hz. How it is done: Matured male Sprague-Dawley rats (weighed 250-350 g) were first sensitizing anesthetized by intraperitoneal injecting of pentobarbital sodium (50 mg/kg) and then were general anesthetized by continuously infusion with pentobarbital sodium (15 mg/kg). The rats were intubated in both femoral veins, wherein one was used for continuously dropping anesthesia and the other was used for delivering testing drug. The rates were tracheal intubated to connect with a respirator (Havard 683) for mechanical respiration. In addition, the skeletal muscle of the whole body of the animals was anesthetized by administrating pancuronium. In order to record the artery pressure, the intubation at the right femoral artery was linked to a PE-50 tube connected with a syringe pre-filled with heparinized saline (200 unit/mL). The artery pressure and heart rate were recorded by a pressure sensory machine ([…], Hewlett-Packard) in the tube. The artery pressure was converted by a pressure converter (Statham, P231D, frequency range: DC to 200 Hz), amplified by a pre-amplifier (Gould, G-13-4615-52), and then filtered (DC to 100 Hz). Electrocardiograph signal was recorded by a second guided electrocardiograph recorder. The signal was amplified by a pre-amplifier(Gould G-20-4615-58) and then filtered (3-300 Hz). At the same time, the signal and the artery pressure were caught by a 12 bit analog-digital converter in an analyzing computer in a frequency of 256 points per second in every channel. The computer used was an IBM-PC compatible type comprising an Intel 80486 micro processor and a 4 MB memory. The Heart rate signals (digital blood pressure signal or electrocardiograph signal) were simultaneously and continuously on-line analyzed by the Fast Fourier Transform method, and the power of each special frequency interval was quantified by integration. High frequency (frequency between 0.5 to 2.4 Hz) in spectrum was considered as an index of parasympathetic nervous function, low frequency % [=100× low frequency/(high frequency+low frequency)] was considered as an index of sympathetic nervous function, and the means of heart rate period and variance were considered as references. The rats were divided into three groups, and each group had 4 to 6 animals. A group of animals were intravenously administered with yohimbine (1 mg/kg), which is a central nervous system α2 receptor antagonist being able to stimulate sympathetic nervous functions and inhibit parasympathetic nervous functions. Another group of animals was intravenously administered with guanabenz (100 μg/kg), which is a central nervous system α2 receptor agonist being able to inhibit sympathetic nervous functions and stimulate parasympathetic nervous functions. The animals administered with saline of the same volume was classified as a controlled group. Prior to applying the drugs, basal blood pressure, mean value of heart rate period and spectral analysis were measured for about 10 minutes, and after the drugs being intravenously administered, the effects of the drugs were measured for 30 minutes. […] Therefore, low frequency % is shown to be a valid index of the sympathetic nervous activity, and high frequency an index of the parasympathetic nervous activity, respectively. […]

The test system of experiment [2] is autonomic nervous system. Nature of the experiment: Heart rate variability (ECG spectral analysis) in apoplectic patients complicated with hypertension before and after drug. Conditions: labetalol 12.5 mg injected. The experiment is classed as in vivo, human. The procedure:
In this human experiment, the non-invasive apparatus system of the invention was used to monitor the autonomic nervous system functional change side effects caused by drugs. Four (two females and two males) apoplectic patients complicated with hypertension at the age of 77.3±8.8 (± means standard deviation) were chosen in the study. The patients were divided into two groups: (1) the control group and (2) the labetalol group (the experiment group). All patients, 5 minutes before administrating the drug, were classified as the control group. After being treated/injected with labetalol (12.5 mg) for 5 minutes, the patients became the labetalol group. Labetalol is an α and β combined epinephrine antagonist (a sympathetic hormone epinephrine blocker) for lowering blood pressure. Treatment and analysis of the electrocardiograph (ECG) were conducted similarly to those recited in Example 1, except that the ranges of the frequencies were determined based on those of humans. The power of each frequency range comprising variance, low frequency power (0.04-0.15 Hz) and high frequency power (0.15-0.4 Hz) was quantified by integration. Parameters of the ratios of low frequency/high frequency (LF/HF ratio) and low frequency rate (LF%) were also calculated at the same time. The values of variance, LF, HF and LF/HF were logarithmically transformed to correct the distribution bias. All data were presented as mean ±SD, and the differences between the experimental and control groups were examined by paired t-test, wherein a value of p<0.05 is considered as the data having a statistic meaning. […] Variance and HF responses were uncertain (P>0.05). In light of the results of the experiment, it has been proven that non-invasive apparatus system of the invention can be used in patients for monitoring autonomic nervous system functional change side effects caused by drugs.

Setting [3] is: yohimbine 1 mg/kg intravenously, FIG. 3.
Setting [4] is: 5 minutes after vs before, P>0.05, FIG. 4.
[5] abbreviates: 5 minutes after vs before, p<0.05, FIG. 4.
Setting [6] is: guanabenz 100 μg/kg intravenously, FIG. 2.
The mark [7] stands for this setting: guanabenz 100 μg/kg intravenously, measured for 30 minutes after drug, FIG. 2.

Turning to `COC(=O)[C@@H]1[C@H]2C[C@H]3c4[nH]c5ccccc5c4CCN3C[C@@H]2CC[C@@H]1O` [yohimbine], in the experiment on autonomic nervous system [1] (setting [3]), the “high frequency (index of parasympathetic nervous activity)” value is “lowered”, the heart rate period result is reported as “lowered” and the “low frequency % (index of sympathetic nervous activity)” value is “tremendously increased”.
On to `CC(CCc1ccccc1)NCC(O)c1ccc(O)c(C(N)=O)c1` (stereo not drawn) [labetalol], for which the heart rate period result with autonomic nervous system [2] (5 minutes after vs 5 minutes before, four patients, p<0.05, FIG. 4) is given as “increased”. Besides, in the experiment with autonomic nervous system [2] (setting [4]), the HF response entry is listed as “uncertain” and the Variance response entry is reported as “uncertain”. Moreover, in the experiment with autonomic nervous system [2] (setting [5]), the “LF % (index of heart sympathetic nervous activity)” value is “decreased” and the “LF/HF (index of heart sympathetic nervous activity)” value is “decreased”.
Regarding `N=C(N)N/N=C/c1c(Cl)cccc1Cl` [guanabenz], in the experiment with autonomic nervous system [1] (setting [6]), the “high frequency (index of parasympathetic nervous activity)” value is on record as “increased” and the “low frequency % (index of sympathetic nervous activity)” value is “tremendously lowered”. Besides, in the experiment with autonomic nervous system [1] (setting [7]), the heart rate period result was “increased” and the heart rate variability entry is “increased”.
